Laboratory results taken from the NIST ThermoML archive (doi:10.1021/acs.jced.5b00989).

Assay: molar heat capacity at constant pressure; xn = mol fraction of the nth substance listed
Conditions: 100 kPa, Liquid, Small sample (50 mg) DSC

O=C(CO)[C@@H](O)[C@H](O)[C@H](O)CO [D-fructose] + C[N+](C)(C)CCO.[Cl-]
x2 = 0.67
Conditions	molar heat capacity at constant pressure [J/K/mol]
298.15 K	311.5
300.65 K	313.8
303.15 K	316.7
305.65 K	319.4
308.15 K	322
310.65 K	324.2
313.15 K	326.2
315.65 K	328.3
318.15 K	330.5
320.65 K	332.6
323.15 K	334.1
325.65 K	334.9
328.15 K	335.8
330.65 K	336.1
333.15 K	335.8
335.65 K	335.7
338.15 K	335.2
340.65 K	334.7
343.15 K	335.2
345.65 K	335.8
348.15 K	336.6
350.65 K	337.7
353.15 K	340.1

C[N+](C)(C)CCO.[Cl-] [choline chloride] + O=C[C@H](O)[C@@H](O)[C@H](O)[C@H](O)CO
x1 = 0.67
Conditions	molar heat capacity at constant pressure [J/K/mol]
298.15 K	327.5
300.65 K	329.1
303.15 K	330.7
305.65 K	332.4
308.15 K	334.5
310.65 K	336.7
313.15 K	338.6
315.65 K	340.6
318.15 K	342.5
320.65 K	344.5
323.15 K	346
325.65 K	347.2
328.15 K	348.4
330.65 K	349.5
333.15 K	350.6
335.65 K	350.9
338.15 K	351.4
340.65 K	352
343.15 K	352.6
345.65 K	353.8
348.15 K	354.2
350.65 K	354.4
353.15 K	356.3

C[N+](C)(C)CCO.[Cl-] [choline chloride] + Oc1ccccc1
x1 = 0.25
Conditions	molar heat capacity at constant pressure [J/K/mol]
298.15 K	219.3
300.65 K	220.3
303.15 K	221.2
305.65 K	222.3
308.15 K	223.3
310.65 K	224.2
313.15 K	225.1
315.65 K	225.8
318.15 K	226.6
320.65 K	227.1
323.15 K	227.9
325.65 K	228.6
328.15 K	229.3
330.65 K	230.2
333.15 K	231.1
335.65 K	231.9
338.15 K	232.6
340.65 K	233.1
343.15 K	233.5
345.65 K	234.3
348.15 K	234.5
350.65 K	235
353.15 K	236.8

O=C(O)CC(O)(CC(=O)O)C(=O)O [citric acid] + C[N+](C)(C)CCO.[Cl-]
x2 = 0.33
Conditions	molar heat capacity at constant pressure [J/K/mol]
298.15 K	422
300.65 K	422.9
303.15 K	424
305.65 K	425.2
308.15 K	426.1
310.65 K	427.2
313.15 K	428.7
315.65 K	429.8
318.15 K	430.6
320.65 K	431.9
323.15 K	433
325.65 K	433.5
328.15 K	435.4
330.65 K	436.7
333.15 K	437.5
335.65 K	438.6
338.15 K	439.7
340.65 K	440.6
343.15 K	442.1
345.65 K	446.1
348.15 K	447.2
350.65 K	446.8
353.15 K	449.4

O=C(O)C(=O)O [ethanedioic acid] + C[N+](C)(C)CCO.[Cl-]
x2 = 0.33
Conditions	molar heat capacity at constant pressure [J/K/mol]
298.15 K	270.8
300.65 K	271.8
303.15 K	272.1
305.65 K	272.7
308.15 K	273.6
310.65 K	274.6
313.15 K	275.4
315.65 K	276.3
318.15 K	276.8
320.65 K	277
323.15 K	277.1
325.65 K	277.4
328.15 K	277.8
330.65 K	278.3
333.15 K	278.7
335.65 K	279.6
338.15 K	280
340.65 K	280.6
343.15 K	281.2
345.65 K	281.7
348.15 K	281.9
350.65 K	282.2
353.15 K	282.9

C[P+](c1ccccc1)(c1ccccc1)c1ccccc1.[Br-] [methyltriphenylphosphonium bromide] + O=C(O)CC(=O)O
x1 = 0.4
Conditions	molar heat capacity at constant pressure [J/K/mol]
298.15 K	336.9
300.65 K	338
303.15 K	339.2
305.65 K	340
308.15 K	341
310.65 K	342.1
313.15 K	343.1
315.65 K	343.9
318.15 K	345.2
320.65 K	346
323.15 K	346.6
325.65 K	347.4
328.15 K	348.4
330.65 K	350.1
333.15 K	350.3
335.65 K	350.7
338.15 K	351.3
340.65 K	351.5
343.15 K	351.9
345.65 K	352.1
348.15 K	352.5
350.65 K	354
353.15 K	354.2

C[P+](c1ccccc1)(c1ccccc1)c1ccccc1.[Br-] [methyltriphenylphosphonium bromide] + OCC(O)CO
x1 = 0.25
Conditions	molar heat capacity at constant pressure [J/K/mol]
298.15 K	328.5
300.65 K	329.6
303.15 K	330.5
305.65 K	331.6
308.15 K	332.7
310.65 K	333.7
313.15 K	334.8
315.65 K	335.8
318.15 K	336.5
320.65 K	338.1
323.15 K	339.4
325.65 K	339.6
328.15 K	340.8
330.65 K	341.8
333.15 K	342.6
335.65 K	343.5
338.15 K	344.6
340.65 K	345.7
343.15 K	346.7
345.65 K	347.8
348.15 K	347.9
350.65 K	348.3
353.15 K	350.2

C[P+](c1ccccc1)(c1ccccc1)c1ccccc1.[Br-] [methyltriphenylphosphonium bromide] + OCCO
x1 = 0.2
Conditions	molar heat capacity at constant pressure [J/K/mol]
298.15 K	237.6
300.65 K	238.6
303.15 K	239.4
305.65 K	240.8
308.15 K	241.6
310.65 K	242.4
313.15 K	243.4
315.65 K	244.5
318.15 K	245.2
320.65 K	246.1
323.15 K	247.2
325.65 K	247.9
328.15 K	248.9
330.65 K	249.8
333.15 K	250.8
335.65 K	251.8
338.15 K	252.7
340.65 K	253.5
343.15 K	254.3
345.65 K	255
348.15 K	255.5
350.65 K	255
353.15 K	256.7

O=C(O)CC(=O)O [propanedioic acid] + CCCC[N+](CCCC)(CCCC)CCCC.[Cl-]
x2 = 0.25
Conditions	molar heat capacity at constant pressure [J/K/mol]
298.2 K	299.8
300.7 K	302.6
303.2 K	305.7
305.7 K	309.4
308.2 K	313.3
310.7 K	316.9
313.2 K	320.6
315.7 K	323.7
318.2 K	324.9
320.7 K	328.8
323.2 K	333.3
325.7 K	335.9
328.2 K	337.5
330.7 K	339.2
333.2 K	339.5
335.7 K	340
338.2 K	340.2
340.7 K	340.6
343.2 K	341.1
345.7 K	341.2
348.2 K	341.7
350.7 K	342
353.2 K	342.8

O=C(O)CC(=O)O [propanedioic acid] + C[N+](C)(C)CCO.[Cl-]
x2 = 0.5
Conditions	molar heat capacity at constant pressure [J/K/mol]
298.15 K	226.9
300.65 K	227.6
303.15 K	228.3
305.65 K	228.8
308.15 K	229.4
310.65 K	230.2
313.15 K	230.6
315.65 K	231.1
318.15 K	231.7
320.65 K	232.3
323.15 K	232.7
325.65 K	233.2
328.15 K	233.8
330.65 K	234.3
333.15 K	234.9
335.65 K	235.8
338.15 K	237
340.65 K	238
343.15 K	238.4
345.65 K	238.9
348.15 K	239.5
350.65 K	239.9
353.15 K	240.8

CCCC[N+](CCCC)(CCCC)CCCC.[Cl-] [tetrabutylammonium chloride] + NC(N)=O
x1 = 0.8
Conditions	molar heat capacity at constant pressure [J/K/mol]
308.2 K	590
310.7 K	593
313.2 K	598
315.7 K	601.2
318.2 K	602.6
320.7 K	600.6
323.2 K	601.5
325.7 K	602.9
328.2 K	601.7
330.7 K	603
333.2 K	604.9
335.7 K	605.1
338.2 K	603.2
340.7 K	604
343.2 K	604.4
345.7 K	605.2
348.2 K	604.8
350.7 K	605.4
353.2 K	605.9

CCCC[N+](CCCC)(CCCC)CCCC.[Cl-] [tetrabutylammonium chloride] + OCC(O)CO
x1 = 0.17
Conditions	molar heat capacity at constant pressure [J/K/mol]
298.2 K	281.2
300.7 K	282.5
303.2 K	283.9
305.7 K	285.4
308.2 K	286.9
310.7 K	288.1
313.2 K	289.4
315.7 K	290.7
318.2 K	292
320.7 K	293.4
323.2 K	294.5
325.7 K	296.1
328.2 K	297.4
330.7 K	298.9
333.2 K	300.4
335.7 K	301.9
338.2 K	303.2
340.7 K	304.6
343.2 K	305.7
345.7 K	306.9
348.2 K	307.8
350.7 K	308.6
353.2 K	310.9

CCCC[N+](CCCC)(CCCC)CCCC.[Cl-] [tetrabutylammonium chloride] + OCCO
x1 = 0.25
Conditions	molar heat capacity at constant pressure [J/K/mol]
298.2 K	288.3
300.7 K	289.6
303.2 K	291
305.7 K	292.2
308.2 K	293.2
310.7 K	294.5
313.2 K	295.8
315.7 K	296.8
318.2 K	297.9
320.7 K	299.5
323.2 K	300.5
325.7 K	301.2
328.2 K	302.4
330.7 K	303.5
333.2 K	304.8
335.7 K	305.9
338.2 K	306.9
340.7 K	307.7
343.2 K	308.5
345.7 K	309.1
348.2 K	309.6
350.7 K	310.6
353.2 K	312.6

CCCC[N+](CCCC)(CCCC)CCCC.[Cl-] [tetrabutylammonium chloride] + OCCOCCOCCO
x1 = 0.5
Conditions	molar heat capacity at constant pressure [J/K/mol]
298.2 K	445
300.7 K	447.8
303.2 K	448.9
305.7 K	450.6
308.2 K	452.3
310.7 K	454.2
313.2 K	456.1
315.7 K	457.4
318.2 K	458.7
320.7 K	460.2
323.2 K	461.9
325.7 K	463
328.2 K	464.5
330.7 K	466.2
333.2 K	467.7
335.7 K	469.2
338.2 K	471.1
340.7 K	472.6
343.2 K	473.7
345.7 K	475.2
348.2 K	475.6
350.7 K	476
353.2 K	479.7
